What was measured:
[1] = Phase 1/1b study of Compound A: safety, treatment-related adverse events; assay type: in vivo, human
Procedure: This Example describes the study design of a Phase 1/1b study of Compound A in patients with advanced solid tumors harboring specific mutations in RAS with the first patient dosed in June 2022. There are 2 parts planned in this study: Part 1: Dose Escalation and Part 2: Dose Expansion. In the Dose Escalation Phase, safety/tolerability and pharmacokinetics (PK) are assessed, and one or more candidate recommended phase 2 dose and schedule (RP2DS) for further testing in the second part of the study is determined. Enrollment in the Dose Expansion Phase begins after determination of a candidate RP2DS. Part 2 of the study further evaluates the safety/tolerability, PK, and preliminary antitumor effects within specific histotypes. Dose Expansion/Dose Optimization cohorts include RAS-mutant advanced solid tumors with specific histotypes/genotypes (including, but not limited to, NSCLC, PDAC, CRC, melanoma, gynecological cancers, other solid tumors.
Safety assessments and procedures were performed. Real-time safety monitoring was performed to ensure that the protocol-specified dose modification guidelines are followed. In addition, C1 safety and available PK and pharmacodynamic data was reviewed and evaluated at each Compound A dose level/schedule to determine whether enrollment into the next higher dose-level cohort may proceed. A modified schedule can be evaluated in which Compound A may be administered more or less frequently than once daily (QD). The totality of the data from dose escalation cohorts was reviewed and one or more candidate RP2DS for expansion in Part 2 recommended.
Compound A was administered PO QD at the following dose levels until disease progression or unacceptable toxicity: 10, 20, 40, 80, 120, 160, 220, 300, 400, and 500 mg. Progression to the next Cohort and dose level may stop if DLT is observed at a lower dose level. Other dose levels not specified but within the range listed above may also be permitted based on emergent safety and PK data.
As of Sep. 11, 2023, 131 patients received Compound A at dose levels from 10 to 400 mg QD. The majority of patients had pancreatic cancer, non-small cell lung cancer, or colorectal cancer. The most common (≥10% of patients) treatment-related adverse events (TRAEs) were rash and gastrointestinal (GI)-related toxicities that were all Grade 1 or 2 in severity. Most rashes were acneiform or maculopapular, consistent with known on-target rash presentation from other RAS pathway inhibitors. […] The most common GI-related toxicities were nausea, diarrhea, and vomiting that were manageable with standard supportive care. The median duration of treatment at the time of the data extraction was 2.27 months.

KRAS^G12X PDAC = test: Phase 1/1b study: tumor response per RECIST v1.1 in PDAC; assay type: in vivo, human
Procedure: FIG. 5 is a waterfall plot showing the best response in KRAS^G12X PDAC.
Subjects are assessed for response using Response Evaluation Criteria in Solid Tumors (version 1.1) (RECIST [v1.1]). All subjects with previous or current, known or suspected brain metastases must have a magnetic resonance imaging (MRI) of the brain (unless contraindicated) performed within 28 days prior to the first dose of Compound A (C1D1). Disease response for clinical management of subjects is assessed per RECIST (v1.1).

[2] = Total (N = 131), 10 to 400 mg QD, as of Sep. 11, 2023
[3] = Total (N = 131), 10 to 400 mg QD, post-data extraction associated with biliary obstruction, reported as unrelated to Compound A
[4] = KRAS G12X PDAC, 80 mg QD to 400 mg QD, RECIST v1.1, FIG. 5

With `CCn1c(-c2cc(N3CCN(C)CC3)cnc2[C@H](C)OC)c2c3cc(ccc31)-c1csc(n1)C[C@H](NC(=O)[C@H]1C[C@@H]1C)C(=O)N1CCC[C@H](N1)C(=O)OCC(C)(C)C2` [Compound A] the “Fatigue TRAE, maximum severity Grade 3” value [1, 2] was 0 n (%), the “Fatigue TRAE, maximum severity Grade 4” value [1, 2] was 0 n (%) and the “Nausea TRAE, Any Grade” value [1, 2] was 55 (42 n (%). The “Nausea TRAE, maximum severity Grade 1” value [1, 2] was 41 (31) n (%), the “Nausea TRAE, maximum severity Grade 2” value [1, 2] was 14 (11) n (%) and the “Nausea TRAE, maximum severity Grade 3” value [1, 2] was 0 n (%). The “Nausea TRAE, maximum severity Grade 4” value [1, 2] was 0 n (%), the “Rash* TRAE, Any Grade” value [1, 2] was 92 (70) n (%) and the “Rash* TRAE, maximum severity Grade 1” value [1, 2] was 57 (44) n (%). The “Rash* TRAE, maximum severity Grade 2” value [1, 2] was 29 (22) n (%), the “Rash* TRAE, maximum severity Grade 3” value [1, 2] was 6 (5) n (%) and the “Rash* TRAE, maximum severity Grade 4” value [1, 2] was 0 n (%). For the same compound, the “Stomatitis TRAE, Any Grade” value [1, 2] was 21 (16) n (%), the “Stomatitis TRAE, maximum severity Grade 1” value [1, 2] was 10 (8) n (%) and the “Stomatitis TRAE, maximum severity Grade 2” value [1, 2] was 9 (7) n (%). For the same compound, the “Stomatitis TRAE, maximum severity Grade 3” value [1, 2] was 2 (2) n (%), the “Stomatitis TRAE, maximum severity Grade 4” value [1, 2] was 0 n (%) and the “TRAEs leading to dose reduction, Any Grade” value [1, 2] was 11 (8) n(%). For the same compound, the “TRAEs leading to dose reduction, maximum severity Grade 1” value [1, 2] was 0 n(%), the “TRAEs leading to dose reduction, maximum severity Grade 2” value [1, 2] was 9 (7) n(%) and the “TRAEs leading to dose reduction, maximum severity Grade 3” value [1, 2] was 2 n(%). For the same compound, the “TRAEs leading to dose reduction, maximum severity Grade 4” value [1, 2] was 0 n(%), the “TRAEs leading to treatment discontinuation, Any Grade” value [1, 2] was 1 (1) n(%) and the “TRAEs leading to treatment discontinuation, maximum severity Grade 1” value [1, 2] was 0 n(%). The “TRAEs leading to treatment discontinuation, maximum severity Grade 2” value [1, 2] was 0 n(%), the “TRAEs leading to treatment discontinuation, maximum severity Grade 3” value [1, 2] was 0 n(%) and the “TRAEs leading to treatment discontinuation, maximum severity Grade 4” value [1, 2] was 1 (1) n(%). The “Vomiting TRAE, Any Grade” value [1, 2] was 36 (28) n (%), the “Vomiting TRAE, maximum severity Grade 1” value [1, 2] was 27 (21) n (%) and the “Vomiting TRAE, maximum severity Grade 2” value [1, 2] was 9 (7) n (%). For the same compound, the “Vomiting TRAE, maximum severity Grade 3” value [1, 2] was 0 n (%), the “Vomiting TRAE, maximum severity Grade 4” value [1, 2] was 0 n (%) and the “ALT elevation TRAE, maximum severity Grade 3” value [1, 3] was 1 (1)+ n(%). The “AST elevation TRAE, maximum severity Grade 3” value [1, 3] was 1 (1)+ n(%), the “Discontinuation of study treatment due to death” value ([1]; one PDAC (120 mg) due to PD, one NSCLC (200 mg) unknown cause reported as unrelated to Compound A) was “Two patients discontinued study treatment due to death” and the “Grade 4 TRAE (leading to treatment discontinuation)” value ([1]; one patient with PDAC treated at 80 mg, at the site of an invasive tumor) was “large intestine perforation”. For the same compound, the Disease control rate (KRAS^G12X PDAC; [4]) was 87%, the Overall response rate (KRAS^G12X PDAC; [4]) was 20% and the “Response, case report KRAS^G12D PDAC” value (KRAS^G12X PDAC; one patient, 80 mg QD, at cycle 5) was “confirmed partial response”. The “Response, case report KRAS^G12R PDAC” value (KRAS^G12X PDAC; one patient, 160 mg QD, at week 6) was “confirmed partial response”.
